Test results reported in patent publication US12187709B2 (Genentech, Inc., priority 2021, dated 2025).

Tests used:
Cbl-b = Cbl-b (Homo sapiens (Human), UniProt Q13191); assay: Cbl-b LCK Ub TR-FRET assay (Cbl-b Lck HTRF); assay type: biochemical; conditions: for IC50: Cbl-b LCK Ub TR-FRET; for fold-selectivity (Cbl-b over C-cbl) / (fold-selectivity) Cbl-b and C-Cbl Selectivity: ratio C-cbl Lck HTRF IC50 / Cbl-b Lck HTRF IC50
Method in brief: (§1)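 Signal is read once the detection mix has stood 20 min at ambient temperature. Curves are anchored by DMSO as maximum and by omission of LCK as minimum.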

c-Cbl = c-Cbl (Homo sapiens (Human), UniProt P22681); assay: C-Cbl LCK Ub TR-FRET assay (C-cbl Lck HTRF); assay type: biochemical
Sequence of c-Cbl (P22681 47-435): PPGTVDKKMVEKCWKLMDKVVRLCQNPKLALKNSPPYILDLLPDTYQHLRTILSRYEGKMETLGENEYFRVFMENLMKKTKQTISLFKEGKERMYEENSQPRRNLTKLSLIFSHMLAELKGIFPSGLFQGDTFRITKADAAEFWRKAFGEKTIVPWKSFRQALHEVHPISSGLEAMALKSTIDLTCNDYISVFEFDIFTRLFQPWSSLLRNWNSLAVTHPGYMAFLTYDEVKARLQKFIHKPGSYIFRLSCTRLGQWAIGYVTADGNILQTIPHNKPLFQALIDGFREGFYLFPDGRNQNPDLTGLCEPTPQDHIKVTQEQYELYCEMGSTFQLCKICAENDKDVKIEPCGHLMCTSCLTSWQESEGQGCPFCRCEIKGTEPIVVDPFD
Method in brief: as §1

Sequence of Cbl-b (Q13191 40-426): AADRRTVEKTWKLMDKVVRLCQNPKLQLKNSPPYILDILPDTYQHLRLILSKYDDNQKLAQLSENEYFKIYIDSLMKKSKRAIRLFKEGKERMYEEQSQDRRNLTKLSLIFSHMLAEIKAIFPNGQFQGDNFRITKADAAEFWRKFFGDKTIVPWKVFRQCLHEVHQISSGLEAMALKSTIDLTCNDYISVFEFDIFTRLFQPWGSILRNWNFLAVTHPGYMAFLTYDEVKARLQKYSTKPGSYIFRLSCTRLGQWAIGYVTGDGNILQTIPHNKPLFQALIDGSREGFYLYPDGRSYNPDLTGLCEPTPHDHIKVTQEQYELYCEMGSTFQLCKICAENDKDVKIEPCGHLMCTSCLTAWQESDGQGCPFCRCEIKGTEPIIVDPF

## C[C@@H](NC1CCC1)c1cc2c(c(C(F)(F)F)c1)CN(c1cccc(C3(c4nncn4C)CC(F)(F)C3)c1)C2=O (single isomer, unassigned) [Compound 38]
Cbl-b
  IC50: 0.011 µM
  fold-selectivity (Cbl-b over C-cbl): (2.9x)
c-Cbl
  IC50: 0.032 µM

## Cn1cnnc1[C@H](C[C@@H]1CCOC1)c1cccc(N2Cc3c(cc(CNC4(C)CCC4)cc3C(F)(F)F)C2=O)c1 [Compound 275, 2-(3-((R)-1-(4-methyl-4H-1,2,4-triazol-3-yl)-2-((R)-tetrahydrofuran-3-yl)ethyl)phenyl)-6-(((1-methylcyclobutyl)amino)methyl)-4-(trifluoromethyl)isoindolin-1-one]
Cbl-b
  IC50: ≥ 20 µM
  fold-selectivity (Cbl-b over C-cbl): 1.0x
c-Cbl
  IC50: 20 µM

## Cn1cnnc1[C@@H](CC1CCC1)c1cccc(N2Cc3c(cc(CNC4(C)CCC4)cc3C(F)(F)F)C2=O)c1 [Compound 269, (S)-2-(3-(2-cyclobutyl-1-(4-methyl-4H-1,2,4-triazol-3-yl)ethyl)phenyl)-6-(((1-methylcyclobutyl)amino)methyl)-4-(trifluoromethyl)isoindolin-1-one]
Cbl-b
  IC50: 0.076 µM
  fold-selectivity (Cbl-b over C-cbl): 4.0x
c-Cbl
  IC50: 0.3 µM

## CC1(NCc2cc3c(c(C(F)(F)F)c2)CN(c2cccc([C@H](C4COC4)n4ccnn4)c2)C3=O)CCC1 (single isomer, unassigned) [Compound 437]
Cbl-b; Example 121
  IC50: ≥ 20 µM
Cbl-b
  (fold-selectivity) Cbl-b and C-Cbl Selectivity: 1.0x
c-Cbl
  IC50: 20 µM

## CO[C@H]1C[C@](O)(C(c2cccc(N3Cc4c(cc(CNC5(C)CCC5)cc4C(F)(F)F)C3=O)c2)c2nncn2C)C1 (single isomer, unassigned) [Compound 368]
Cbl-b
  IC50: 4 µM
  fold-selectivity (Cbl-b over C-cbl): 1.6x
c-Cbl
  IC50: 6.4 µM

## CC1(NCc2cc3c(c(C(F)(F)F)c2)CN(c2cccc([C@H](c4nnc[nH]4)C4COC4)c2)C3=O)CCC1 (single isomer, unassigned) [Compound 440]
Cbl-b; Example 121
  IC50: 0.066 µM
Cbl-b
  (fold-selectivity) Cbl-b and C-Cbl Selectivity: 6.0x
c-Cbl
  IC50: 0.4 µM

## Cn1cnnc1[C@H](CC1COC1)c1cccc(N2Cc3c(cc(CNC4(C)CCC4)cc3C(F)(F)F)C2=O)c1 [Compound 245, (R)-2-(3-(1-(4-methyl-4H-1,2,4-triazol-3-yl)-2-(oxetan-3-yl)ethyl)phenyl)-6-(((1-methylcyclobutyl)amino)methyl)-4-(trifluoromethyl)isoindolin-1-one]
Cbl-b
  IC50: 0.049 µM
  fold-selectivity (Cbl-b over C-cbl): 2.2x
c-Cbl
  IC50: 0.11 µM

## CCNc1cc([C@]2(c3nncn3C)C[C@H](C)C2)cc(N2Cc3c(cc(CNC4(C)CCC4)cc3C(F)(F)F)C2=O)n1 [Compound 6, 2-(6-(ethylamino)-4-((1r,3r)-3-methyl-1-(4-methyl-4H-1,2,4-triazol-3-yl)cyclobutyl)-pyridin-2-yl)-6-(((1-methylcyclobutyl)amino)methyl)-4-(trifluoromethyl)isoindolin-1-one]
Cbl-b
  IC50: 0.011 µM
  fold-selectivity (Cbl-b over C-cbl): (0.56x)
c-Cbl
  IC50: 0.0062 µM

## CC1(NCc2cc3c(c(C(F)(F)F)c2)CN(c2cccc([C@@H](c4nnc[nH]4)C4COC4)c2)C3=O)CCC1 (single isomer, unassigned) [Compound 441]
Cbl-b; Example 121
  IC50: 6.3 µM
Cbl-b
  (fold-selectivity) Cbl-b and C-Cbl Selectivity: 3.2x
c-Cbl
  IC50: 20 µM

## Cn1cnnc1[C@H](CC1CCC1)c1cccc(N2Cc3c(cc(CNC4(C)CCC4)cc3C(F)(F)F)C2=O)c1 [Compound 268, (R)-2-(3-(2-cyclobutyl-1-(4-methyl-4H-1,2,4-triazol-3-yl)ethyl)phenyl)-6-(((1-methylcyclobutyl)amino)methyl)-4-(trifluoromethyl)isoindolin-1-one]
Cbl-b
  IC50: 1.7 µM
  fold-selectivity (Cbl-b over C-cbl): 1.6x
c-Cbl
  IC50: 2.7 µM

## Cn1cnnc1[C@@H](c1cccc(N2Cc3c(cc(CNC4(C)CCC4)cc3C(F)(F)F)C2=O)c1)C1CCOCC1 [Compound 290, (R)-2-(3-((4-methyl-4H-1,2,4-triazol-3-yl)(tetrahydro-2H-pyran-4-yl)methyl)phenyl)-6-(((1-methylcyclobutyl)amino)methyl)-4-(trifluoromethyl)isoindolin-1-one]
Cbl-b
  IC50: 13 µM
  fold-selectivity (Cbl-b over C-cbl): 1.5x
c-Cbl
  IC50: 20 µM

## Cc1cnnn1[C@H](c1cccc(N2Cc3c(cc(CNC4(C)CCC4)cc3C(F)(F)F)C2=O)c1)C1COC1 (single isomer, unassigned) [Compound 136]
Cbl-b
  IC50: ≥ 20 µM
  fold-selectivity (Cbl-b over C-cbl): 1.0x
c-Cbl
  IC50: 20 µM

## Cn1cnnc1[C@](O)(c1cccc(N2Cc3c(cc(CNC4(C)CCC4)cc3C(F)(F)F)C2=O)c1)C1COC1 (single isomer, unassigned) [Compound 144]
Cbl-b
  IC50: 4.5 µM
  fold-selectivity (Cbl-b over C-cbl): 1.6x
c-Cbl
  IC50: 8.2 µM

## Cc1cc([C@H](c2nncn2C)C2COC2)cc(N2Cc3c(cc(CNC4(C)CCC4)cc3C(F)(F)F)C2=O)c1 (single isomer, unassigned) [Compound 332]
Cbl-b
  IC50: 16 µM
  fold-selectivity (Cbl-b over C-cbl): 1.3x
c-Cbl
  IC50: 20 µM

## Cn1cnnc1[C@@H](c1cccc(N2Cc3c(cc(CNC4(C)CCC4)cc3C(F)(F)F)C2=O)c1)C1(O)COC1 (single isomer, unassigned) [Compound 146]
Cbl-b
  IC50: 4 µM
  fold-selectivity (Cbl-b over C-cbl): 2.3x
c-Cbl
  IC50: 9.2 µM

## COc1cc([C@H](c2nncn2C)C2COC2)cc(N2Cc3c(cc(CNC4(C)CCC4)cc3C(F)(F)F)C2=O)c1 (single isomer, unassigned) [Compound 338]
Cbl-b
  IC50: 3.8 µM
  fold-selectivity (Cbl-b over C-cbl): 1.6x
c-Cbl
  IC50: 6 µM

## CCOc1cc([C@]2(c3nncn3C)C[C@@H](C)C2)cc(N2Cc3c(cc(CNC4(C)CCC4)cc3C(F)(F)F)C2=O)n1 [Compound 3, 2-(6-ethoxy-4-((1s,3s)-3-methyl-1-(4-methyl-4H-1,2,4-triazol-3-yl)cyclobutyl)pyridin-2-yl)-6-(((1-methylcyclobutyl)amino)methyl)-4-(trifluoromethyl)isoindolin-1-one]
Cbl-b
  IC50: 0.0036 µM
  fold-selectivity (Cbl-b over C-cbl): (0.69x)
c-Cbl
  IC50: 0.0025 µM

## Cn1cnnc1C1(c2cccc(N3Cc4c(cccc4C(F)(F)F)C3=O)c2)CC2(COC2)C1 [Compound 191, 2-(3-(6-(4-methyl-4H-1,2,4-triazol-3-yl)-2-oxaspiro[3.3]heptan-6-yl)phenyl)-4-(trifluoromethyl)isoindolin-1-one]
Cbl-b
  IC50: 5.7 µM
  fold-selectivity (Cbl-b over C-cbl): 1.7x
c-Cbl
  IC50: 9.7 µM

## Cn1cnnc1[C@@H](C[C@@H]1COCCO1)c1cccc(N2Cc3c(cc(CNC4(C)CCC4)cc3C(F)(F)F)C2=O)c1 [Compound 296, 2-(3-((S)-2-((R)-1,4-dioxan-2-yl)-1-(4-methyl-4H-1,2,4-triazol-3-yl)ethyl)phenyl)-6-(((1-methylcyclobutyl)amino)methyl)-4-(trifluoromethyl)isoindolin-1-one]
Cbl-b
  IC50: 8 µM
  fold-selectivity (Cbl-b over C-cbl): 2.0x
c-Cbl
  IC50: 16 µM

## C[C@@H](NC1(C)CCC1)c1cc2c(c(C(F)F)c1)CN(c1cccc([C@@H](c3nncn3C)C3COC3)c1)C2=O (single isomer, unassigned) [Compound 406]
Cbl-b; Example 121
  IC50: 9.9 µM
Cbl-b
  (fold-selectivity) Cbl-b and C-Cbl Selectivity: 2.0x
c-Cbl
  IC50: 20 µM
